Source: patent US20110319379A1, “Substituted Indazole Amides And Their Use As Glucokinase Activators” (priority 2009, published 2011)

Each molecule was assayed against T1, recombinant human glucokinase (beta cell isoform) (Homo sapiens, UniProt P35557) (assay: Assay 1: Evaluating Activator Potency and Maximum Activation at 5 mM Glucose). Conditions: Assay 1; 5 mM glucose; NADH depletion at 340 nm, PK/LDH coupled; read-out: Glucokinase EC50.
T1 construct: Full-length glucokinase (beta cell isoform) was His-tagged at the N-terminus; His tag (N); made in house; host or cells: E. coli BL21(DE3), vector pBCGK
T1 sequence (P35557 1-465): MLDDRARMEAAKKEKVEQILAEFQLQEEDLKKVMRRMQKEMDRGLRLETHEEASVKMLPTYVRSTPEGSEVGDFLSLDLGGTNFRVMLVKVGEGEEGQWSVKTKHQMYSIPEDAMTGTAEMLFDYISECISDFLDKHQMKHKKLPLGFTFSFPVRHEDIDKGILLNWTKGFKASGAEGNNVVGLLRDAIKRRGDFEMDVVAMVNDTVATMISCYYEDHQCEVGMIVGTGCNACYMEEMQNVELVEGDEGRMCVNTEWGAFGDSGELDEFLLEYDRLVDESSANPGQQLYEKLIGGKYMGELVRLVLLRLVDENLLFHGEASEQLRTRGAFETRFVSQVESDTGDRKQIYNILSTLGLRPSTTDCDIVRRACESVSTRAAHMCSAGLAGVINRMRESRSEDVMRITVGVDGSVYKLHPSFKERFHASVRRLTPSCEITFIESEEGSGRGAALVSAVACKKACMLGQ
Type: biochemical
Procedure: Representative compounds of this invention were evaluated in biochemical assays (Assay 1 or Assay 2) to characterize their glucokinase activation properties.
The recombinant human glucokinase protein utilized in both assays was prepared and purified as described below.
BL21(DE3) cells (Invitrogen Corporation, Carlsbad, Calif.) containing pBCGK (C or N H is) vector were grown at 37° C. (in 2XYT) until the OD600 was between 0.6-1.0. Expression was induced by addition of isopropylthiogalactoside to a final concentration of 0.1-0.2 mM to the cells which were then incubated overnight at 23° C. The next day, cells were harvested via centrifugation at 5000 rpm for 15 minutes at 4° C. The cell pellet was stored at −80° C. for future purification.
Beta Cell Glucokinase His-Taq Purification Conditions: A Ni-NTA (Quigan, Germantown, Md.) column (15-50 mL) was used for separation. Two buffers were prepared, 1) a lysis/nickel equilibration and wash buffer and 2) a nickel elution buffer. The lysis/equilibration/wash buffer was prepared as such: 25 mM HEPES buffer at pH 7.5, 250 mM NaCl, 20 mM imidazole, and 14 mM β-mercaptoethanol as final concentrations. The elution buffer was prepared as such: 25 mM HEPES at pH 7.5, 250 mM NaCl, 400 mM imidazole, and 14 mM β-mercaptoethanol as final concentrations. The buffers were each filtered with a 0.22 μm filter prior to use. The cell pellet (1 L culture) was resuspended in 300 mL of the lysis/equilibration buffer. The cells were then lysed (3 times) with a Microfluidics Model 110Y microfluidizer (Microfluidics Corporation, Newton, Mass.). The slurry was centrifuged with a Beckman Coulter Model LE-80K ultracentrifuge (Beckman Coulter, Fullerton, Calif.) at 40,000 rpm for 45 minutes at 4° C. The supernatant was transferred to a chilled flask. A volume of 20 μl was saved for gel analysis. A Pharmacia AKTA (GMI, Inc., Ramsey, Minn.) purification system was used for separation. The prime lines were purged with lysis/equilibration buffer. The Ni-NTA column was equilibrated with 200 mL of the lysis/equilibration buffer at a flow rate of 5 mL/minute. The supernantant was loaded over the column at 4 mL/minute and the flow-through was collected in a flask. The unbound proteins were washed with lysis/equilibration buffer at a flow rate of 5 mL/minute until the ultraviolet reaches baseline. The protein was then eluted from the column with the imidazole elution buffer via imidazole gradient 20 mM to 400 mM over 320 mL. The column was then stripped of any additional protein with 80 mL of the elution buffer. The elution fractions were each 8 mL, for a total yield of 50 samples. Fractions were analyzed by sodium dodecyl sulfate polyacrylamide (SDS-PAGE) and the fractions containing protein of interest were pooled and concentrated to 10 mL using ultrafiltration cell with a 10,000 molecular weight cut-off (MWCO) Millipore membrane (Sigma-Aldrich, St. Louis, Mo.) under nitrogen gas (60 psi). Protein was further purified by size exclusion chromatography (SEC) using a […] (320 mL) (Amersham Pharmacia, Uppsala, Sweden). SEC was equilibrated with 450 mL sizing buffer containing 25 mM HEPES pH 7.0, 50 mM NaCl, and 5 mM dithiothreitol. Concentrated protein was then loaded over SEC and elution with 400 mL sizing buffer was performed overnight at 0.5 mL/minute. The elution fractions were 5 mL each. The fractions were analyzed by SDS-PAGE and protein containing fractions were pooled. Concentration was measured using Bradford Assay/BSA Standard. Purified protein was stored in small aliquots at −80° C.
Assay 1: Evaluating Activator Potency and Maximum Activation at 5 mM Glucose
Full-length glucokinase (beta cell isoform) was His-tagged at the N-terminus and purified by a Ni column followed by size exclusion chromatography as described above. Glucose was obtained from Calbiochem (San Diego, Calif.) and other reagents were purchased from Sigma-Aldrich (St. Louis, Mo.).

| Compound | EC50 |
| --- | --- |
| Cn1ccc(NC(=O)c2cc(Oc3cnc(C(F)(F)F)cn3)c3cn(C)nc3c2)n1 [Example 1J, 2-methyl-N-(1-methyl-1H-pyrazol-3-yl)-4-{[5-(trifluoromethyl)pyrazin-2-yl]oxy}-2H-indazole-6-carboxamide] | 22400 nM |
| Cc1cnc(NC(=O)c2cc(Oc3ccc(S(=O)(=O)C4CC4)cc3)c3cn(C)nc3c2)cn1 [Example 1U, 4-[4-(cyclopropylsulfonyl)phenoxy]-2-methyl-N-(5-methylpyrazin-2-yl)-2H-indazole-6-carboxamide] | 1890 nM |
| Cn1cc2c(Oc3cnc(C(=O)N4CCCC4)cn3)cc(C(=O)Nc3cnccn3)cc2n1 [Example 1B, 2-methyl-N-pyrazin-2-yl-4-{[5-(pyrrolidin-1-ylcarbonyl)pyrazin-2-yl]oxy}-2H-indazole-6-carboxamide] | 960 nM |
| Cc1ccc(NC(=O)c2cc(Oc3cnc(C(=O)N(C)C)nc3)c3cn(C)nc3c2)nc1 [Example 1Z, 4-{[2-(dimethylcarbamoyl)pyrimidin-5-yl]oxy}-2-methyl-N-(5-methylpyridin-2-yl)-2H-indazole-6-carboxamide] | 1080 nM |
| Cc1cnc(NC(=O)c2cc(Oc3cnc(C(F)(F)F)cn3)c3cn(C)nc3c2)cn1 [Example 1I, 2-methyl-N-(5-methylpyrazin-2-yl)-4-{[5-(trifluoromethyl)pyrazin-2-yl]oxy}-2H-indazole-6-carboxamide] | 19400 nM |
| CCn1cc2c(Oc3cnc(C(=O)N(C)C)cn3)cc(C(=O)Nc3ccc(C)cn3)cc2n1 [Example 1O, 4-{[5-(dimethylcarbamoyl)pyrazin-2-yl]oxy}-2-ethyl-N-(5-methylpyridin-2-yl)-2H-indazole-6-carboxamide] | 776 nM |
| CN(C)C(=O)c1cnc(Oc2cc(C(=O)Nc3cnccn3)cc3nn(C)cc23)cn1 [Example 1E, 4-{[5-(dimethylcarbamoyl)pyrazin-2-yl]oxy}-2-methyl-N-pyrazin-2-yl-2H-indazole-6-carboxamide] | 4310 nM |
